IC50 and EC50 data for 15 molecules are collected here from patent US20140249135A1, “PIM KINASE INHIBITORS AND METHODS OF THEIR USE” (NOVARTIS AG, priority 2007, published 2014).

pIC50: −log10 of the molar value.

One assay concerns the target Pim1 kinase (Homo sapiens, UniProt P11309). In words: Pim1 ATP depletion assay.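 Further: Luciferase-luciferin luminescence readout of residual ATP after PIM1 transfers phosphate to a peptide substrate, 40 µM ATP added, reaction run to roughly half ATP consumption.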 It counts as biochemical. The following applies: Pim1 ATP depletion assay; read-out: IC50 (μM) PIM1.
For the next assay, the target named is Pim2 kinase (Homo sapiens, UniProt Q9P1W9). In words: Pim2 ATP depletion assay.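 Further: Luciferase-based luminescent readout of ATP remaining after PIM2 phosphorylates a BAD peptide, final 5 nM enzyme, 4 µM ATP, 10 µM peptide, 2.5% DMSO, run to roughly half ATP consumption.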 It counts as biochemical. The following applies: read-out: IC50 (μM) PIM2.
Pim2 kinase, sequence (Q9P1W9 whole entry): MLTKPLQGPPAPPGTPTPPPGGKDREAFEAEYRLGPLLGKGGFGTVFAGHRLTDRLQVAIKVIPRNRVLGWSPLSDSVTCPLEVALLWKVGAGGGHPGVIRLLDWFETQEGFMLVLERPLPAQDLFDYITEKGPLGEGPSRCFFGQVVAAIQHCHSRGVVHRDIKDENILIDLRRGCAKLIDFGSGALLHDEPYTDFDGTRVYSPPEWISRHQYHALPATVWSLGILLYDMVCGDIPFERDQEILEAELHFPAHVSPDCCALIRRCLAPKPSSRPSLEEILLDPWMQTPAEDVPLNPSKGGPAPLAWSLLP
The next assay addresses Pim3 kinase (Homo sapiens, UniProt Q86V86). In words: Pim3 ATP depletion assay. In kind it is biochemical. Conditions: read-out: IC50 (μM) PIM3.
Another assay has as its system HEL 92.1.7 cells. The assay is described as follows: Cell proliferation assay (CellTiter-Glo), HEL 92.1.7. Conditions: Homo sapiens, read-out: EC50 (μM) HEL 92.1.7. In kind it is cell-based. In a few lines:
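CellTiter-Glo luminescence was read after 3-day compound exposure at 37 °C of cells plated at 1000/well in RPMI1640 with 10% FBS. Signal was normalised between DMSO-treated and control-compound-treated wells. EC50 is the concentration giving 50% of maximal effect.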
(In general: In ATP-based viability assays light output follows the ATP content of the culture.)

The subject of the next assay is PC3 cells. In words: Cell proliferation assay (CellTiter-Glo), PC3. It counts as cell-based. The following applies: Homo sapiens, PC-3. As to the method:
HEL 92.1.7 cells (ATTC No. TIB-180, an erythroleukemia line derived from malignant peripheral blood), MV4-11 cells (ATCC No. CRL-9591, a human acute monocytic leukemia line) and PC3 cells (ATCC No. CRL-1435, a human prostatic adenocarcinoma line) were cultured in RPMI1640 supplemented with 10% FBS, sodium pyruvate and antibiotics. Cells were plated in the same medium at a density of 1000 cells per well into 96 well tissue culture plates, with outside wells vacant, on the day of assay.
Test compounds supplied in DMSO were diluted into DMSO at 500 times the desired final concentrations before dilution into culture media to 2 times final concentrations. Equal volumes of 2× compounds were added to the cells in 96 well plates and incubated at 37° C. for 3 days.
After 3 days plates were equilibrated to room temperature and equal volume of CellTiter-Glow Reagent (Promega) was added to the culture wells. The plates were agitated briefly and luminescent signal was measured with luminometer. The percent inhibition of the signal seen in cells treated with DMSO alone vs. cells treated with control compound was calculated and used to determine EC50 values (i.e., the concentration of a test compound that is required to obtain 50% of the maximum effect in the cells) for tested compounds, as shown in Example 763.

The target of assay [1] is T1, human full length PKCE enzyme (Homo sapiens, UniProt Q02156).
T1 construct: human full length PKCE enzyme purchased from InVitrogen; purchased InVitrogen
T1 sequence (Q02156 1-737): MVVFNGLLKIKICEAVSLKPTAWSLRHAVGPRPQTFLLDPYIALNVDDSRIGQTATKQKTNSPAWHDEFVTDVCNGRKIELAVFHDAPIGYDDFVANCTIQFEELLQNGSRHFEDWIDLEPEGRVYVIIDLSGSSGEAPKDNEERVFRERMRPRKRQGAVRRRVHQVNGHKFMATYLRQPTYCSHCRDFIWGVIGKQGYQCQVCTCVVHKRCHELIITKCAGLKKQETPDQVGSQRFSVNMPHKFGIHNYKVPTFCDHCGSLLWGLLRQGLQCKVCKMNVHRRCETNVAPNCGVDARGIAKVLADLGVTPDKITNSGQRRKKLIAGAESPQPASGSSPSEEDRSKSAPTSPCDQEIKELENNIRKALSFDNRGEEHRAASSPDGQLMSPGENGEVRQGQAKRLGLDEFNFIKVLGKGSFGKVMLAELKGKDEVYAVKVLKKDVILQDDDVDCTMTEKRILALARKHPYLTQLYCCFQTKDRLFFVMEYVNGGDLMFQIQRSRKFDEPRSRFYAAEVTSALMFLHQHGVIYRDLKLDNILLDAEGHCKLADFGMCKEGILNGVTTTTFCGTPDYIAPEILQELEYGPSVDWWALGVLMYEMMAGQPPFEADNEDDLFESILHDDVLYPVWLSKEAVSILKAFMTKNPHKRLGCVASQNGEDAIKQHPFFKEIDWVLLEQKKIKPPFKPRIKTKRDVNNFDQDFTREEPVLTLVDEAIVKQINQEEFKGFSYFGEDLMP
In words: In vitro PKCE assay. It counts as biochemical. Conditions: 10 nM enzyme, 40 uM peptide substrate, 20 uM ATP, KinaseGlo Plus readout; read-out: PKCε IC50. (In general: Kinase-Glo measures the ATP left after a reaction by luminescence.)

The target of another assay is KDR kinase (Homo sapiens, UniProt P35968). The assay is described as follows: KDR AlphaScreen assay. Conditions: KDR IC50 (μM).
KDR kinase, sequence (P35968 20-1356): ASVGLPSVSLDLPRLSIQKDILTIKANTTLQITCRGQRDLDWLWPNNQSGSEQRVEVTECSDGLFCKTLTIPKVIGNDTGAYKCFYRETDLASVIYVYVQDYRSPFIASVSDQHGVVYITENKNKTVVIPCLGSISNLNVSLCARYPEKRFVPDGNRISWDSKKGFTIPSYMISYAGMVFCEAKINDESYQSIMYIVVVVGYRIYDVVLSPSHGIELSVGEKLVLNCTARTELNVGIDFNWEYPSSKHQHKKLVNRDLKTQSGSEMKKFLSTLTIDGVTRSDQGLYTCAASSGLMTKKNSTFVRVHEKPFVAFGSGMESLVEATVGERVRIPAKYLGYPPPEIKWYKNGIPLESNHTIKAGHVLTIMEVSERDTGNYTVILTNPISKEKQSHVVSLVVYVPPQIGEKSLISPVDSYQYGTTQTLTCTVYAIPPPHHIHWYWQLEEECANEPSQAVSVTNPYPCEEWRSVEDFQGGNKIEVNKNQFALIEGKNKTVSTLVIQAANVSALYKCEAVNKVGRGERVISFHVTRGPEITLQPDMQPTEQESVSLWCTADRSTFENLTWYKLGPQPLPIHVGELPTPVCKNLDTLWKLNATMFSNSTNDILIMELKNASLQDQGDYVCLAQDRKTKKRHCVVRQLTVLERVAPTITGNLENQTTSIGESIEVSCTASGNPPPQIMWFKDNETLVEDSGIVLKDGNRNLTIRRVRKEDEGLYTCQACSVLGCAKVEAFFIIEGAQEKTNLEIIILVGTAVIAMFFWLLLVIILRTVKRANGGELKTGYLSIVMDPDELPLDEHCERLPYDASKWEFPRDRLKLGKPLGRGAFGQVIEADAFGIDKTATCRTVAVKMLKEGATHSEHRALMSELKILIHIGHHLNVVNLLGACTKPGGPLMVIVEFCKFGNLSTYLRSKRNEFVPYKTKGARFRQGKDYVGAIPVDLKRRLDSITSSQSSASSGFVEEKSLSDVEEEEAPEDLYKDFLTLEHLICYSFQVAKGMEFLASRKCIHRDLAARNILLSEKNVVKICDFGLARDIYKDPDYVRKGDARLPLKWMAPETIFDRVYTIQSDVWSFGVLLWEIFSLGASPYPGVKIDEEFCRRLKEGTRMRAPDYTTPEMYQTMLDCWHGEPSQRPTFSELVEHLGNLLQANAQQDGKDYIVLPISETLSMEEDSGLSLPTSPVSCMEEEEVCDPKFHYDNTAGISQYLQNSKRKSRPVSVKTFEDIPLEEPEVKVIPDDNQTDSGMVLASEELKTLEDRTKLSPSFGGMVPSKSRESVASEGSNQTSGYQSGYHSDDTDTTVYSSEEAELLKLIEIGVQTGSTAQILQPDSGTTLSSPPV

Pim1 kinase, sequence (P11309 whole entry): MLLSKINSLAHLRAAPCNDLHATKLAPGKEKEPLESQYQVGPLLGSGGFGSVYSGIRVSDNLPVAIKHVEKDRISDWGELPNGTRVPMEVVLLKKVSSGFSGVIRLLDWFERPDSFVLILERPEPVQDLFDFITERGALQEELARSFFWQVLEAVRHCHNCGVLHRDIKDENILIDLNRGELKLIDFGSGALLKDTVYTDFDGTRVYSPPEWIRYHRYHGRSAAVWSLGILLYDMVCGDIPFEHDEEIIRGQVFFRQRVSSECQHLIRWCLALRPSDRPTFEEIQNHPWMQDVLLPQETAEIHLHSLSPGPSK

As for `Nc1nccnc1C(=O)Nc1ccncc1N1CCCC(N)C1` (centres unmarked) [Example 173, 3-amino-N-[3-(3-aminopiperidin-1-yl)pyridin-4-yl]pyrazine-2-carboxamide], the IC50 (in general, the concentration needed to halve the response being measured) was < 1 µM at Pim1 kinase, < 1 µM at Pim2 kinase, < 1 µM at Pim3 kinase and 10 to 25 µM at KDR kinase. Also, the EC50 (as a rule, the midpoint of the concentration-response curve) with HEL 92.1.7 cells is 1 to 5 µM; with PC3 cells it was 5 to 10 µM. Besides, the negative-log IC50 (pIC50) – broadly, −log10 of the IC50, conventionally taken in molar units – in assay [1] is > 6.00.

Turning to `Nc1nccnc1C(=O)Nc1cnccc1N1CCC[C@H](N)C1` [Example 176], the half-maximal inhibitory concentration (IC50) on Pim2 kinase is < 1 µM; on Pim3 kinase, < 1 µM; on KDR kinase, 1 to 10 µM. For the same molecule, the concentration for a half-maximal effect (EC50) in the assay with HEL 92.1.7 cells and with PC3 cells was 1 to 5 µM throughout. Further, in assay [1], the negative logarithm of the IC50 (pIC50) is > 6.00.

As to `CCOc1ccc(Cl)c(-c2ccc(N)c(C(=O)Nc3cnccc3N3CCC[C@H](N)C3)n2)c1` [Example 322, 3-amino-6-(2-chloro-5-ethoxy-phenyl)-pyridine-2-carboxylic acid ((S)-3-amino-3,4,5,6-tetrahydro-2H-[1,4′]bi-pyridinyl-3′-yl)-amide], the half-inhibitory concentration (IC50) is < 1 µM at Pim1 kinase, < 1 µM on Pim2 kinase, < 1 µM at Pim3 kinase and > 25 µM against KDR kinase. Besides, the EC50 was < 1 µM with HEL 92.1.7 cells and 5 to 10 µM in the assay on PC3 cells. In addition, the pIC50 in assay [1] was 5.00 to 6.00.

Turning to `Nc1ccc(-c2cc(C(=O)Nc3ccccc3)ccc2F)nc1C(=O)Nc1cnccc1N1CCC[C@H](N)C1` [Example 323, 3-amino-6-(2-fluoro-5-phenylcarbamoyl-phenyl)-pyridine-2-carboxylic acid ((S)-3-amino-3,4,5,6-tetra-hydro-2H-[1,4′]bipyridinyl-3′-yl)-amide], the IC50 on Pim1 kinase, on Pim2 kinase and on Pim3 kinase was < 1 µM each time. For the same molecule, the concentration giving a half-maximal response (EC50) in the assay with HEL 92.1.7 cells is < 1 µM; in the assay on PC3 cells, 1 to 5 µM.

With `Nc1ncc(-c2ccccc2C(F)(F)F)nc1C(=O)Nc1cnccc1N1CCCC(N)C1` (centres unmarked) [Example 348, 3-amino-6-(2-trifluoromethyl-phenyl)-pyrazine-2-carboxylic acid (3-amino-3,4,5,6-tetra-hydro-2H-[1,4′]bipyridinyl-3′-yl)-amide], the IC50 at Pim1 kinase and at Pim3 kinase was < 1 µM each time. In addition, the EC50 in the assay with HEL 92.1.7 cells is < 1 µM; in the assay with PC3 cells it was 1 to 5 µM. In assay [1], the pIC50 is > 6.00.

In the case of `Nc1ncc(-c2ccccc2)nc1C(=O)Nc1cnccc1N1CCNCC1` [Example 359, 3-amino-6-phenyl-pyrazine-2-carboxylic acid (4-piperazin-1-yl-pyridin-3-yl)-amide], the concentration for half-maximal inhibition (IC50) at Pim1 kinase, at Pim2 kinase, at Pim3 kinase and at KDR kinase was < 1 µM throughout. Besides, in the assay on PC3 cells, the EC50 is < 1 µM. Also, the pIC50 in assay [1] is > 6.00.

As for `COc1ccc(-c2cnc(N)c(C(=O)Nc3cnccc3N3CCNCC3)n2)cc1` [Example 362, 3-amino-6-(4-methoxy-phenyl)-pyrazine-2-carboxylic acid (4-piperazin-1-yl-pyridin-3-yl)-amide], the IC50 at Pim1 kinase, on Pim2 kinase, at Pim3 kinase and at KDR kinase was < 1 µM in each case. For the same molecule, the concentration giving a half-maximal response (EC50) in the assay with PC3 cells was < 1 µM. In assay [1], the negative-log IC50 (pIC50) is > 6.00.

On to `Nc1ncc(-c2ccccc2Oc2ccccc2)nc1C(=O)Nc1cnccc1N1CCC(N)CC1` [Example 365, 3-amino-6-(2-phenoxy-phenyl)-pyrazine-2-carboxylic acid (4-amino-3,4,5,6-tetra-hydro-2H-[1,4′]bipyridinyl-3′-yl)-amide], for which the IC50 was < 1 µM on Pim1 kinase, 1 to 10 µM at Pim2 kinase, < 1 µM at Pim3 kinase and < 1 µM on KDR kinase. Moreover, the EC50 in the assay with PC3 cells was > 10 µM. Moreover, in assay [1], the pIC50 was > 6.00.

On to `COc1ccc(-c2cnc(N)c(C(=O)Nc3cnccc3N3CCCC(N)C3)n2)cc1` (centres unmarked) [Example 370, 3-amino-6-(4-methoxy-phenyl)-pyrazine-2-carboxylic acid (3-amino-3,4,5,6-tetra-hydro-2H-[1,4′]bipyridinyl-3′-yl)-amide], for which the IC50 at Pim1 kinase, at Pim2 kinase, on Pim3 kinase and on KDR kinase was < 1 µM each time. Also, the EC50 in the assay on PC3 cells was in the range of 5 to 10 µM. In assay [1], the pIC50 was > 6.00.

Consider `Nc1ncc(-c2ccccc2)nc1C(=O)Nc1ccccc1N1CCCC(N)C1` (centres unmarked) [Example 372, 3-amino-6-phenyl-pyrazine-2-carboxylic acid [2-(3-amino-piperidin-1-yl)-phenyl]-amide], for which the IC50 at Pim1 kinase, on Pim2 kinase, at Pim3 kinase and against KDR kinase was < 1 µM in each case. Besides, the EC50 in the assay with PC3 cells lay in the range of 1 to 5 µM. The pIC50 in assay [1] was > 6.00.

With `Cc1cnc(N)c(C(=O)Nc2ccccc2N2CCCC(N)C2)n1` (centres unmarked) [Example 376, 3-amino-6-methyl-pyrazine-2-carboxylic acid [2-(3-amino-piperidin-1-yl)-phenyl]-amide], the IC50 at Pim1 kinase is < 1 µM; at Pim2 kinase, < 1 µM; at Pim3 kinase, < 1 µM; on KDR kinase it was > 25 µM. Besides, the 50% effective concentration (EC50) in the assay on PC3 cells is > 10 µM. Moreover, the negative-log IC50 (pIC50) in assay [1] was > 6.00.

As to `Cc1cnc(N)c(C(=O)Nc2ccccc2N2CCC(N)CC2)n1` [Example 378, 3-amino-N-[2-(4-amino-piperidin-1-yl)phenyl]-6-methylpyrazine-2-carboxamide], the 50% inhibitory concentration (IC50) was < 1 µM on Pim1 kinase, 10 to 25 µM on Pim2 kinase, 1 to 10 µM at Pim3 kinase and > 25 µM against KDR kinase. Further, in the assay on PC3 cells, the EC50 was in the range of 1 to 5 µM. For the same molecule, the negative logarithm of the IC50 (pIC50) in assay [1] is > 6.00.

As for `Nc1ncc(-c2ccccc2)nc1C(=O)Nc1ccccc1N1CCNCC1` [Example 382, 3-amino-6-phenyl-pyrazine-2-carboxylic acid (2-piperazin-1-yl-phenyl)-amide], the 50% inhibitory concentration (IC50) on Pim1 kinase was < 1 µM; on Pim2 kinase it was 1 to 10 µM; at Pim3 kinase it was < 1 µM; at KDR kinase, 1 to 10 µM. In the assay on PC3 cells, the EC50 lay in the range of 1 to 5 µM. The pIC50 in assay [1] is > 6.00.

With `Nc1ncc(-c2cccc3ccccc23)nc1C(=O)Nc1ccccc1N1CCNCC1` [Example 389, 3-amino-6-naphthalen-1-yl-pyrazine-2-carboxylic acid (2-piperazin-1-yl-phenyl)-amide], the 50% inhibitory concentration (IC50) on Pim1 kinase is < 1 µM; on Pim2 kinase it was 1 to 10 µM; at Pim3 kinase, 1 to 10 µM; against KDR kinase it was 1 to 10 µM. The concentration for a half-maximal effect (EC50) in the assay on PC3 cells lay in the range of 1 to 5 µM. The negative logarithm of the IC50 (pIC50) in assay [1] was > 6.00.

As to `COc1ccncc1-c1ccc(N)c(C(=O)Nc2cnccc2N2CCC[C@H](N)C2)n1` [Example 421, 5-amino-4′-methoxy-[2,3′]bi-pyridinyl-6-carboxylic acid ((S)-3-amino-3,4,5,6-tetrahydro-2H-[1,4′]bipyridinyl-3′-yl)-amide], the concentration for half-maximal inhibition (IC50) on Pim1 kinase, at Pim2 kinase and at Pim3 kinase was < 1 µM throughout. Moreover, the figures for the EC50 in the assay on HEL 92.1.7 cells and in the assay on PC3 cells were 1 to 5 µM and > 10 µM, respectively.
